Test results from US20240374601A1, “METHODS AND COMPOSITIONS FOR TREATING CANCER” (Onconova Therapeutics, Inc., priority 2021, published 2024).

Legend:
Neutropenia, FIG. 2 = format: cell-based; conditions: ovarian cancer cell line; compared to Comparator 1
[1] = Myelosuppression and neutropenia in preclinical models; conditions: in comparison to Comparator-1
prostate cancer cells = assay: Growth of cancer cell lines resistant to Comparator-1; format: cell-based; conditions: prostate cancer cells resistant to Comparator-1
breast cancer cells = assay: as above; format: cell-based; conditions: breast cancer cells resistant to Comparator-1
ovarian cancer cells = assay: Growth of ovarian cancer cell lines; format: cell-based

neutropenia (FIG. 2) (Neutropenia, FIG. 2): reduced neutropenia
myelosuppression [1]: less myelosuppression
neutropenia [1]: less neutropenia
SMILES: CN1CCN(c2ccc(Nc3ncc4cc(C#N)c(=O)n(C5CCCC5)c4n3)cc2)CC1 [Compound 1, 8-cyclopentyl-2-((4-(4-methylpiperazin-1-yl)phenyl)amino)-7-oxo-7,8-dihydropyrido[2,3-d]pyrimidine-6-carbonitrile]
growth of cancer cell lines (prostate cancer cells): inhibited growth
growth of cancer cell lines (breast cancer cells): inhibited growth
inhibition of ovarian cancer cell line growth (FIG. 3) (ovarian cancer cells; compared to Comparator 1): higher inhibition
growth of cancer cell lines (ovarian cancer cells; ovarian cancer cells resistant to Comparator-1): inhibited growth
